Measurements from ChEMBL document CHEMBL1201862, “PubChem BioAssay data set” (2004).
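Assay format: 96-well plates, 48-hour exposure. GI50 is the concentration that inhibits growth by half.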 Calls of active or inactive are those of the source. Rule as the data show it: active = GI50 up to about 1.1 µM and inactive = higher.

What was measured:
Test in all cases: inhibition of tumour cell growth, NCI panel, 48 h
MDA-N = system: MDA-N
DLD-1 = system: DLD-1
DMS-114 = system: DMS-114
DMS-273 = system: DMS-273
HOP-18 = system: HOP-18
LXFL 529 = system: LXFL 529
M19-MEL = system: M19-MEL
SNB-78 = system: SNB-78

Row | SMILES | GI50 (MDA-N) | GI50 (DLD-1) | GI50 (DMS-114) | GI50 (M19-MEL) | other results
1 | COc1ccc(/C=C2/S/C(=N\c3ccccc3)N(NC(=O)Cc3ccccc3)C2=O)cc1 | > 100 µM (inactive) | – | – | – | –
2 | Cc1ccc(N2C(=O)C(O)=C(C(=O)C(C)(C)C)C2c2ccc([N+](=O)[O-])cc2)cc1 (stereo unspecified) | 26 µM (inactive) | – | – | – | –
3 | FC(F)(F)c1ccccc1C1SCC2=Nc3ccccc3CN21 (stereo unspecified) | 29.5 µM (inactive) | – | – | – | –
4 | COc1cc(/C=C/c2ccc(/C=C/c3cc(OC)c(OC)c(OC)c3)cc2)cc(OC)c1OC | – | 42.3 µM (inactive) | 22.4 µM (inactive) | 32.9 µM (inactive) | GI50 (DMS-273): 14.6 µM (inactive); GI50 (HOP-18): 32.1 µM (inactive); GI50 (LXFL 529): 11.9 µM (inactive); GI50 (SNB-78): 26.1 µM (inactive)
5 | CCCCN(CCCC)C(=O)C(=O)CC(=O)c1ccc(Br)cc1 | – | > 100 µM (inactive) | > 100 µM (inactive) | > 100 µM (inactive) | GI50 (DMS-273): > 100 µM (inactive); GI50 (HOP-18): > 100 µM (inactive); GI50 (LXFL 529): > 100 µM (inactive); GI50 (SNB-78): > 100 µM (inactive)
6 | Cc1ccc(-c2nc3cc([N+](=O)[O-])ccc3[nH]2)cc1 | > 100 µM (inactive) | – | – | – | –
7 | O=c1cc(-c2ccccc2)oc2cc(OCC(O)COc3ccc4c(=O)cc(-c5ccccc5)oc4c3)ccc12 | – | > 100 µM (inactive) | > 100 µM (inactive) | 56.4 µM (inactive) | GI50 (DMS-273): 41.9 µM (inactive); GI50 (HOP-18): > 100 µM (inactive); GI50 (LXFL 529): 40 µM (inactive); GI50 (SNB-78): 13.6 µM (inactive)
8 | O=c1[nH]c2cc(C(F)(F)F)ccc2nc1CBr | 12 µM (inactive) | – | – | – | –
9 | CCC1=C(C)/C(=C/c2[nH]c(C(Br)Br)c(CC)c2C)N=C1C(Br)Br | – | 25.6 µM (inactive) | 19 µM (inactive) | 20.9 µM (inactive) | GI50 (HOP-18): 84.9 µM (inactive); GI50 (LXFL 529): 31.9 µM (inactive); GI50 (SNB-78): 33.4 µM (inactive)
10 | Cc1c(C(=O)CSc2nc3ccccc3c(=O)n2-c2ccccc2)c(=O)n(-c2ccccc2)n1C | – | > 100 µM (inactive) | > 100 µM (inactive) | 52.7 µM (inactive) | GI50 (DMS-273): 68.2 µM (inactive); GI50 (SNB-78): 45.5 µM (inactive)
11 | O=C1/C(=C/c2ccccc2)Oc2cc(O)ccc21 | > 100 µM (inactive) | – | – | – | –
12 | COc1ccc(-c2oc3c(OC)c(OC)c(OC)c(O)c3c(=O)c2OC)cc1OC | 10.3 µM (inactive) | – | – | – | –
13 | O[C@H]1[C@H]2[C@H](O)C[C@H](CCOCc3ccccc3)CN2C[C@H]1O | > 100 µM (inactive) | – | – | – | –
14 | CC1CC(N)=Nc2ccccc2N1 (stereo unspecified) | > 100 µM (inactive) | – | – | – | –
15 | Cc1cc(C)nc(/C(=N\NC(N)=O)C(=O)Nc2nc3ccc(C)cc3s2)c1 | – | > 85.3 µM (inactive) | > 48.5 µM (inactive) | > 100 µM (inactive) | GI50 (DMS-273): > 58.1 µM (inactive); GI50 (HOP-18): > 100 µM (inactive); GI50 (LXFL 529): > 100 µM (inactive); GI50 (SNB-78): > 100 µM (inactive)
16 | O=C(CCN1CCCC1)Nc1ccc2sc3ccccc3c(=O)c2n1 | 13.4 µM (inactive) | – | – | – | –

Row | SMILES | GI50 (MDA-N) | GI50 (DLD-1) | GI50 (DMS-114) | GI50 (M19-MEL) | other results
17 | C[N+](C)(C)CCC(=O)CC[N+](C)(C)C | – | 16.2 µM (inactive) | 20.8 µM (inactive) | 23.5 µM (inactive) | GI50 (DMS-273): 25.6 µM (inactive); GI50 (HOP-18): 17.1 µM (inactive); GI50 (LXFL 529): 16.1 µM (inactive); GI50 (SNB-78): 22.3 µM (inactive)
18 | CC(=O)OCC1OC(n2ccc(=O)[nH]c2=O)C(OC(C)=O)C(OC(C)=O)C1OC(C)=O (stereo unspecified) | – | > 100 µM (inactive) | > 100 µM (inactive) | > 100 µM (inactive) | GI50 (DMS-273): > 100 µM (inactive); GI50 (HOP-18): > 100 µM (inactive); GI50 (LXFL 529): > 100 µM (inactive)
19 | OCC12C3C4C5C3C1C5C42 (stereo unspecified) | > 100 µM (inactive) | – | – | – | –
20 | CCOP(=O)(OCC)C(N)Cc1ccc(OC)c(OC)c1 (stereo unspecified) | > 100 µM (inactive) | – | – | – | –
21 | O=C1C=CC2(O[C@H](C3CCCCC3)[C@@H](C3CCCCC3)O2)C(SC(=O)c2ccccc2)C1 (stereo partly specified) | 1.78 µM (inactive) | – | – | – | –
22 | O=C1C=C(N2CCCC2)C(=O)c2c(O)ccc(O)c21 | > 10 µM (inactive) | – | – | – | –
23 | CCOC(=O)c1sc2nc1CSc1sc(=S)sc1SCc1nc(sc1C(=O)OCC)-c1nc(c(C(=O)OCC)s1)CSc1sc(=S)sc1SCc1nc-2sc1C(=O)OCC | > 10 µM (inactive) | – | – | – | –
24 | NC(=O)C(N)=O | – | > 100 µM (inactive) | > 100 µM (inactive) | > 100 µM (inactive) | GI50 (DMS-273): > 100 µM (inactive); GI50 (HOP-18): > 100 µM (inactive); GI50 (LXFL 529): > 100 µM (inactive); GI50 (SNB-78): > 100 µM (inactive)
25 | COc1cc2c(c(O)c1OC)CC1CCC(=O)N1C2c1cccc2ccccc12 (stereo unspecified) | 16.3 µM (inactive) | – | – | – | –
26 | Cc1c(S(=O)(=O)O)ccc(/N=N/c2c(O)c(C(=O)O)cc3ccccc23)c1Cl | > 100 µM (inactive) | – | – | – | –
27 | C=CCCCCn1c2ccccc2c2c(C)c3c[n+](C)ccc3c(C)c21 | – | 0.607 µM (active) | 0.118 µM (active) | 0.296 µM (active) | GI50 (HOP-18): 0.0912 µM (active); GI50 (LXFL 529): 0.176 µM (active); GI50 (SNB-78): 0.387 µM (active)
28 | C/C(=N\O)c1ccc(Nc2nc3ccccc3c3occc23)cc1 | 11.8 µM (inactive) | – | – | – | –
29 | CCCC(=O)NC(C(=O)OCC)(N1CCOCC1)C(F)(F)F (stereo unspecified) | > 100 µM (inactive) | – | – | – | –
30 | COc1ccc(/C=C2\N/C(=N\N=C/C(O)C(O)C(O)C(O)CO)NC2=O)cc1 (stereo unspecified) | 20.1 µM (inactive) | – | – | – | –
31 | Nc1c(-c2ccc(Cl)c(Cl)c2)c2ccc([N+](=O)[O-])cc2c(=O)n1-c1nc2ccccc2s1 | 0.697 µM (active) | – | – | – | –
